Values of other authors in patent publication US6153738A (priority 1999, dated 2000).

Tested on: Swiss Webster mice
Settings: mouse, in vivo

Substance: GCX1 X2 EPWC [contryphan-R]
- symptomatology after intracranial injection into mice: stiff-tail syndrome
